This assay deals with T1, MM1309 (Methanosarcina mazei, UniProt Q8PXB3).
T1 construct: gene MM_1309; full length, 350 residues, N-terminal His tag from pET28c kept (tag residues visible in crystal), expressed in E. coli; SeMet-substituted protein for the GMPPNP and GDP crystals
T1 sequence (Q8PXB3 1-350): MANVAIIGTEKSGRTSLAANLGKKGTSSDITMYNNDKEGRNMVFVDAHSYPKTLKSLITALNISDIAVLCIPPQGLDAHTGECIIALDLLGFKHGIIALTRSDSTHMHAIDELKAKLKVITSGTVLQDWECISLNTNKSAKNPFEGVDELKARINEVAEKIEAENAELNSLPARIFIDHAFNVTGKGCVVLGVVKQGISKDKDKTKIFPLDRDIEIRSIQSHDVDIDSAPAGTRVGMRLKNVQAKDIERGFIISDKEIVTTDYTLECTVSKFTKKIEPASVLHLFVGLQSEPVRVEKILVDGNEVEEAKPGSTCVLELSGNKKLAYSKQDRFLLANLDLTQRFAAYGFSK
Put plainly: isothermal titration calorimetry. It is filed as binding. (In general: Isothermal titration calorimetry measures the heat released or taken up as one component is titrated into another.)

A word on the Kd: it is a measure of binding affinity in units of concentration. A lower Kd goes with a tighter complex.

Consider `Nc1nc2c(ncn2[C@@H]2O[C@H](COP(=O)(O)OP(=O)(O)O)[C@@H](O)[C@H]2O)c(=O)[nH]1` [GDP], for which binding was put at a Kd of 26.2 µM.

Take `Nc1nc2c(ncn2[C@@H]2O[C@H](COP(=O)(O)OP(=O)(O)NP(=O)(O)O)[C@@H](O)[C@H]2O)c(=O)[nH]1` [GMPPNP]: the equilibrium dissociation constant (Kd) was determined as 222 µM.

Regarding `Nc1nc2c(ncn2[C@@H]2O[C@H](COP(=O)(O)OP(=O)(O)OP(=O)(O)O)[C@@H](O)[C@H]2O)c(=O)[nH]1` [GTP], binding was put at a Kd of 0.43 µM.

The values are drawn from PMC4329189, “A SelB/EF-Tu/aIF2γ-like protein from Methanosarcina mazei in the GTP-bound form binds cysteinyl-tRNA^Cys” (Journal of Structural and Functional Genomics, 2015).
